These results are taken from PMC3441040 (ACS Medicinal Chemistry Letters, 2012).

Each structure is given as a SMILES string. A value given as a limit tells only on which side of the number the result lay.

One experiment has as its target T1, purified murine COX-2 (Mus musculus, UniProt Q05769).
T1 sequence (Q05769 18-604): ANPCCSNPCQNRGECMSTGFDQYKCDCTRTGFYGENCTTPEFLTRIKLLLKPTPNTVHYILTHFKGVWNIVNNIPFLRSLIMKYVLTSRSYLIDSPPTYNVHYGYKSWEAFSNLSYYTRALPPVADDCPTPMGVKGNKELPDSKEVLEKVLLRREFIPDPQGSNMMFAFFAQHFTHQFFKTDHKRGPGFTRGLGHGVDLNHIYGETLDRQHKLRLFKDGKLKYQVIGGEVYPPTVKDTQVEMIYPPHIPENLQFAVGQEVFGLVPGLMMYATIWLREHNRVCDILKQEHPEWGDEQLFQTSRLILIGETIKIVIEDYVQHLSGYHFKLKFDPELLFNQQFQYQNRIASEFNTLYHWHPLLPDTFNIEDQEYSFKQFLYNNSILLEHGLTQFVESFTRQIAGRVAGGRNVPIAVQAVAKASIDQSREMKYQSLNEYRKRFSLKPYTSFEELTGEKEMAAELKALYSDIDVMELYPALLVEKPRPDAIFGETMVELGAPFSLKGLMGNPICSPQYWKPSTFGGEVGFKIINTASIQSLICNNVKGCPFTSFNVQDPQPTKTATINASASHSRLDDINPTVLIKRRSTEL
Put plainly: Inhibition of mCOX-2 dependent oxygenation of 2-AG and AA in vitro. The following applies: read-out: 2-AG IC50 (dash). Type of experiment: biochemical.

Experiment [1] deals with COX-2 dependent oxygenation in RAW 264.7 macrophages. Nature of the experiment: Oxygenation of 2-AG and AA in LPS/interferon γ stimulated RAW 264.7 macrophages. Type of experiment: cell-based. To be noted: Mus musculus, RAW264.7, read-out: AA inhibition in RAW 264.7 cells.

In the case of `COc1ccc2cc(C(C)(C)C(=O)O)ccc2c1` [4b], the inhibition at 10 µM at purified murine COX-2 is less than 50%.

Take `CC(C)Cc1ccc(C(C)(C)C(=O)O)cc1` [4c]: the inhibition at 10 µM at purified murine COX-2 is less than 50%.

With `CC(C)Cc1ccc(C2(C(=O)O)CC2)cc1` [5c], on purified murine COX-2, the inhibition at 10 µM is less than 50%.

Turning to `C[C@@H](C(=O)O)c1ccc(-c2ccccc2)c(F)c1` [7a, (R)-flurbiprofen], the inhibition at 50 µM in experiment [1] amounted to 0%.
